This passage reports Activity (Trolox equivalents) and viability results from ChEMBL document CHEMBL4814051, “Discovery of effective phosphodiesterase 2 inhibitors with antioxidant activities for the treatment of Alzheimer's disease” (Bioorg Med Chem Lett, 2021).

Series [1] is described as follows: Antioxidant activity assessed as trolox equivalent of AAPH-induced radical scavenging activity preincubated for 15 mins followed by AAPH addition and measured every minute for 80 mins by ORAC-FL assay. The format is functional. The following applies: time 95.0 min.
Series [2] in a line: Cytotoxicity against human SH-SY5Y cells assessed as cell viability at 50 uM incubated for 48 hrs by CCK-8 method. The format is cell-based. The following applies: read-out: Activity.
Series [3] in a line: Cytotoxicity against human SH-SY5Y cells assessed as cell viability at 100 uM incubated for 48 hrs by CCK-8 method. The format is cell-based. To be noted: read-out: Activity.

Take `Cc1nc2ccc(NCc3ccc(F)cc3O)cc2n2c(-c3ccccc3Cl)nnc12`: the Activity (Trolox equivalents) in series [1] is 8.4. For the same molecule, the viability at 48 h, 50 µM in series [2] is 53%. Further, the viability at 48 h, 100 µM in series [3] amounted to 39%.

Consider `Cc1nc2ccc(NCc3ccccc3O)cc2n2c(-c3ccccc3Cl)nnc12`, for which the Activity (Trolox equivalents) in series [1] was found to be 3.7.

With `Cc1nc2ccc(NCc3cc(F)ccc3O)cc2n2c(-c3ccccc3Cl)nnc12`, the Activity (Trolox equivalents) in series [1] is 8.1.

Turning to `Cc1nc2ccc(NCc3ccc(Cl)cc3O)cc2n2c(-c3ccccc3Cl)nnc12`, the Activity (Trolox equivalents) in series [1] worked out at 6.9.

On to `Cc1nc2ccc(NCc3ccccn3)cc2n2c(-c3ccccc3Cl)nnc12`, for which the Activity (Trolox equivalents) in series [1] came to 5.5.

`Cc1nc2ccc(NCc3cc(Cl)cc(Cl)c3O)cc2n2c(-c3ccccc3Cl)nnc12`: the Activity (Trolox equivalents) in series [1] came out at 6.8.

As to `Cc1nc2ccc(NCc3c(O)cccc3F)cc2n2c(-c3ccccc3Cl)nnc12`, the Activity (Trolox equivalents) in series [1] was determined as 8.6. Moreover, in series [2], the viability at 48 h, 50 µM was 23%. Besides, the viability at 48 h, 100 µM in series [3] stood at 10%.

Regarding `Cc1nc2ccc(NCc3ccc(Cl)cn3)cc2n2c(-c3ccccc3Cl)nnc12`, in series [1], the Activity (Trolox equivalents) was 1.9.

Consider `COc1ccc(O)c(CNc2ccc3nc(C)c4nnc(-c5ccccc5Cl)n4c3c2)c1`, for which, in series [1], the Activity (Trolox equivalents) came to 8.

With `Cc1nc2ccc(NCc3ccc(F)cc3)cc2n2c(-c3ccccc3Cl)nnc12`, in series [1], the Activity (Trolox equivalents) is 0.2.

As to `Cc1nc2ccc(NCc3ccccc3F)cc2n2c(-c3ccccc3Cl)nnc12`, the Activity (Trolox equivalents) in series [1] came out at 0.6.

With `Cc1nc2ccc(/N=C/c3ccc(F)cc3O)cc2n2c(-c3ccccc3Cl)nnc12`, in series [1], the Activity (Trolox equivalents) was determined as 0.2.

For the molecule `COc1ccc2[nH]cc(CCNC(C)=O)c2c1`, the Activity (Trolox equivalents) in series [1] was determined as 2.

Take `Cc1nc2ccc(NCc3cc(Br)ccc3O)cc2n2c(-c3ccccc3Cl)nnc12`: the Activity (Trolox equivalents) in series [1] stood at 2.6.

In the case of `Cc1nc2ccc(NCc3cc(Cl)ccc3O)cc2n2c(-c3ccccc3Cl)nnc12`, in series [1], the Activity (Trolox equivalents) is 3.9.

For `Cc1nc2ccc(/N=C/c3ccccc3O)cc2n2c(-c3ccccc3Cl)nnc12`, the Activity (Trolox equivalents) in series [1] was 0.3.

As to `Cc1nc2ccc(NCc3cc(OC(F)(F)F)ccc3O)cc2n2c(-c3ccccc3Cl)nnc12`, the Activity (Trolox equivalents) in series [1] is 5.2.
